Reference: patent EP3807270B1, “NOVEL HETEROARYL HETEROCYCLYL COMPOUNDS FOR THE TREATMENT OF AUTOIMMUNE DISEASE” (F. Hoffmann-La Roche AG, priority 2018, dated 2019)

Target: T1, hTLR7 (Homo sapiens, UniProt Q9NYK1)
T1 sequence (Q9NYK1 27-1049): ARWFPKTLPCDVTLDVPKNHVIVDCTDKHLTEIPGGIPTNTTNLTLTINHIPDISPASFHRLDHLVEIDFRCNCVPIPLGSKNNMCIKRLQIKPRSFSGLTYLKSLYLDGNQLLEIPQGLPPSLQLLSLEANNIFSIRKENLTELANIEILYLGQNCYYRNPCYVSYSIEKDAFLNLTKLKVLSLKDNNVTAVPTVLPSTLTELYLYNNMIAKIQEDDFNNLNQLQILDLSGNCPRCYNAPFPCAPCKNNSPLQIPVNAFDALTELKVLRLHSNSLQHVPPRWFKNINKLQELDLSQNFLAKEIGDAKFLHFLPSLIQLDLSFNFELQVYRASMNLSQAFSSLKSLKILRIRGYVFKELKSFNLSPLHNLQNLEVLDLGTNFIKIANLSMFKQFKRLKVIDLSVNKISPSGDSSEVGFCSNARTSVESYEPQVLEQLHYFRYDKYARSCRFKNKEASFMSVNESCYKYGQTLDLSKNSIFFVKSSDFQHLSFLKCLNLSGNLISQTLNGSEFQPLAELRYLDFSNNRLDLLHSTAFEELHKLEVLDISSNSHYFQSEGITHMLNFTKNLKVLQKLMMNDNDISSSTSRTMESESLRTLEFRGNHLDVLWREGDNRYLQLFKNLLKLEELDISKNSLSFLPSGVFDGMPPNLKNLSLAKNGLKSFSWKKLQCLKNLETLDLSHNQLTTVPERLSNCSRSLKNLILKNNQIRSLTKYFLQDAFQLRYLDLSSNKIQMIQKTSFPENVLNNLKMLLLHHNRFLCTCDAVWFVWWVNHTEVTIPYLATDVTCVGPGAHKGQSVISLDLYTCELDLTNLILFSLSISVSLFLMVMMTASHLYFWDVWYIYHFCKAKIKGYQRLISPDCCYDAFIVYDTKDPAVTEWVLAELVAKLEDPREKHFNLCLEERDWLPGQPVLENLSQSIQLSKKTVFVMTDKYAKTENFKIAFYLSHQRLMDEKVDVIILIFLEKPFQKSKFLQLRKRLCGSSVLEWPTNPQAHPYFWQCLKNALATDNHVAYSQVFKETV
Assay: HEK293-Blue-hTLR-7 cells assay (SEAP reporter, R848 stimulation)
Format: cell-based
Parameters: host or cells: HEK293 (HEK-Blue)
Details: HEK293-Blue-hTLR7 cells, R848, 20 hrs; read-out: HEK/hTLR7 IC50
From the text: A stable HEK293-Blue-hTLR-7 cell line was purchased from InvivoGen (Cat.#: hkb-htlr7, San Diego, California, USA). These cells were originally designed for studying the stimulation of human TLR7 by monitoring the activation of NF-κB. A SEAP (secreted embryonic alkaline phosphatase) reporter gene was placed under the control of the IFN-β minimal promoter fused to five NF-κB and AP-1-binding sites. The SEAP was induced by activating NF-xB and AP-1 via stimulating HEK-Blue hTT,R7 cells with TLR7 ligands. Therefore, the reporter expression was declined by TLR7 antagonist under the stimulation of a ligand, such as R848 (Resiquimod), for incubation of 20 hrs. The cell culture supernatant SEAP reporter activity was determined using QUANTI-Blue™ kit (Cat.#: rep-qb1, Invivogen, San Diego, Ca, USA) at a wavelength of 640 nm, a detection medium that turns purple or blue in the presence of alkaline phosphatase.
HEK293-Blue-hTLR7 cells were incubated at a density of 250,000-450,000 cells/mL in a volume of 170 µL in a 96-well plate in Dulbecco's Modified Eagle's medium (DMEM) containing 4.5 g/L glucose, 50 U/mL penicillin, […], […], 2 mM L-glutamine, 10% (v/v) heat-inactivated fetal bovine serum with addition of 20 µL test compound in a serial dilution in the presence of final DMSO at 1% and 10 µL of 20uM R848 in above DMEM, perform incubation under 37 °C in a CO2 incubator for 20 hrs. Then 20 µL of the supernatant from each well was incubated with 180 µL Quanti-blue substrate solution at 37 °C for 2 hrs and the absorbance was read at 620-655 nm using a spectrophotometer. The signaling pathway that TLR7 activation leads to downstream NF-xB activation has been widely accepted, and therefore similar reporter assay was modified for evaluating TLR7 antagonist.

| SMILES | IC50 [nM] |
| --- | --- |
| C[C@@H]1CN(c2ccc(C#N)c3ncccc23)C[C@H](CN2CCCN(c3nc4c(s3)CNCC4)CC2)O1 [Example 33, 5-[(2R,6S)-2-methyl-6-[[4-(4,5,6,7-tetrahydrothiazolo[5,4-c]pyridin-2-yl)-1,4-diazepan-1-yl]methyl]morpholin-4-yl]quinoline-8-carbonitrile] | 17 |
| C[C@@H]1CN(c2ccc(C#N)c3ncccc23)C[C@H](CN2CCN(c3ccc4c(n3)CCN(C)C4)CC2)O1 [Example 34, 5-[(2R,6S)-2-methyl-6-[[4-(6-methyl-7,8-dihydro-5H-1,6-naphthyridin-2-yl)piperazin-1-yl]methyl]morpholin-4-yl]quinoline-8-carbonitrile] | 18 |
| C[C@@H]1CN(c2ccc(C#N)c3ncccc23)C[C@H](CN2CC3(CCN3c3ccc4c(n3)CCNC4)C2)O1 [Example 36, 5-[(2R,6S)-2-methyl-6-[[1-(5,6,7,8-tetrahydro-1,6-naphthyridin-2-yl)-1,6-diazaspiro[3.3]heptan-6-yl]methyl]morpholin-4-yl]quinoline-8-carbonitrile] | 26 |
| C[C@@H]1CN(c2ccc(C#N)c3ncccc23)C[C@H](CN2CCC(Nc3ccc4c(c3)CNC4)C2)O1 (stereo partly drawn) [Example 38, 5-[(2S,6R)-2-[[3-(isoindolin-5-ylamino)pyrrolidin-1-yl]methyl]-6-methyl-morpholin-4-yl]quinoline-8-carbonitrile] | 65 |
| C[C@@H]1CN(c2ccc(C#N)c3ncccc23)C[C@H](CN2CCCN(c3ncc4c(n3)CCNC4)CC2)O1 [Example 39, 5-[(2R,6S)-2-methyl-6-[[4-(5,6,7,8-tetrahydropyrido[4,3-d]pyrimidin-2-yl)-1,4-diazepan-1-yl]methyl]morpholin-4-yl]quinoline-8-carbonitrile] | 8 |
| C[C@@H]1CN(c2ccc(C#N)c3ncccc23)C[C@H](CN2CCN(c3cnc4c(n3)CNCC4)CC2)O1 [Example 40, 5-[(2R,6S)-2-methyl-6-[[4-(5,6,7,8-tetrahydropyrido[3,4-b]pyrazin-3-yl)piperazin-1-yl]methyl]morpholin-4-yl]quinoline-8-carbonitrile] | 7 |
| CC1NCc2ncc(N3CCN(C[C@H]4CN(c5ccc(C#N)c6ncccc56)C[C@@H](C)O4)CC3)cc21 (stereo partly drawn) [Example 41, 5-[(2R,6S)-2-methyl-6-[[4-(5-methyl-6,7-dihydro-5H-pyrrolo[3,4-b]pyridin-3-yl)piperazin-1-yl]methyl]morpholin-4-yl]quinoline-8-carbonitrile] | 28 |
| C[C@@H]1CN(c2ccc(C#N)c3ncccc23)C[C@H](CNC2CN(c3cnc4c(c3)CNC4)C2)O1 [Example 43, 5-[(2S,6R)-2-[[[1-(6,7-dihydro-5H-pyrrolo[3,4-b]pyridin-3-yl)azetidin-3-yl]amino]methyl]-6-methyl-morpholin-4-yl]quinoline-8-carbonitrile] | 130 |
| C[C@@H]1CN(c2ccc(C#N)c3ncccc23)C[C@H](CN2CC3(C2)CN(c2ccc4c(c2)CCNC4)CCO3)O1 [Example 44, 5-[(2R,6S)-2-methyl-6-[[8-(1,2,3,4-tetrahydroisoquinolin-6-yl)-5-oxa-2,8-diazaspiro[3.5]nonan-2-yl]methyl]morpholin-4-yl]quinoline-8-carbonitrile] | 11 |
| C[C@@H]1CN(c2ccc(C#N)c3ncccc23)C[C@H](CN2CC3(C2)CN(c2ccc4c(n2)CNCC4)CCO3)O1 [Example 45, 5-[(2R,6S)-2-methyl-6-[[8-(5,6,7,8-tetrahydro-1,7-naphthyridin-2-yl)-5-oxa-2,8-diazaspiro[3.5]nonan-2-yl]methyl]morpholin-4-yl]quinoline-8-carbonitrile] | 9 |
| C[C@@H]1CN(c2ccc(C#N)c3ncccc23)C[C@H](CN2CC3(C2)CN(c2cnc4c(c2)CCNC4)CCO3)O1 [Example 46, 5-[(2R,6S)-2-methyl-6-[[8-(5,6,7,8-tetrahydro-1,7-naphthyridin-3-yl)-5-oxa-2,8-diazaspiro[3.5]nonan-2-yl]methyl]morpholin-4-yl]quinoline-8-carbonitrile] | 12 |
| C[C@@H]1CN(c2ccc(C#N)c3ncccc23)C[C@H](CN2CC3(C2)CN(c2cnc4c(c2)CNCC4)CCO3)O1 [Example 47, 5-[(2R,6S)-2-methyl-6-[[8-(5,6,7,8-tetrahydro-1,6-naphthyridin-3-yl)-5-oxa-2,8-diazaspiro[3.5]nonan-2-yl]methyl]morpholin-4-yl]quinoline-8-carbonitrile] | 12 |
| C[C@@H]1CN(c2ccc(C#N)c3ncccc23)C[C@H](CN2CC3(C2)CN(c2cc4c(cn2)CCNC4)CCO3)O1 [Example 48, 5-[(2R,6S)-2-methyl-6-[[8-(5,6,7,8-tetrahydro-2,6-naphthyridin-3-yl)-5-oxa-2,8-diazaspiro[3.5]nonan-2-yl]methyl]morpholin-4-yl]quinoline-8-carbonitrile] | 5 |
| C[C@@H]1CN(c2ccc(C#N)c3ncccc23)C[C@H](CN2CC3(C2)CN(c2ccc4c(n2)CCNC4)CCO3)O1 [Example 49, 5-[(2R,6S)-2-methyl-6-[[8-(5,6,7,8-tetrahydro-1,6-naphthyridin-2-yl)-5-oxa-2,8-diazaspiro[3.5]nonan-2-yl]methyl]morpholin-4-yl]quinoline-8-carbonitrile] | 5 |
| C[C@@H]1CN(c2ccc(C#N)c3ncccc23)C[C@H](CN2CC3(C2)CN(c2cnc4c(n2)CCNC4)CCO3)O1 [Example 50, 5-[(2R,6S)-2-methyl-6-[[8-(5,6,7,8-tetrahydropyrido[3,4-b]pyrazin-2-yl)-5-oxa-2,8-diazaspiro [3.5]nonan-2-yl]methyl]morpholin-4-yl] quinoline-8-carbonitrile] | 4 |
| C[C@@H]1CN(c2ccc(C#N)c3ncccc23)C[C@H](CN2CC3(C2)CN(c2ncc4c(n2)CCNC4)CCO3)O1 [Example 51, 5-[(2R,6S)-2-methyl-6-[[8-(5,6,7,8-tetrahydropyrido[4,3-d]pyrimidin-2-yl)-5-oxa-2,8-diazaspiro[3.5]nonan-2-yl]methyl]morpholin-4-yl]quinoline-8-carbonitrile] | 12 |
| C[C@@H]1CN(c2ccc(C#N)c3ncccc23)C[C@H](CN2C[C@@H]3[C@@H](C2)OCCN3c2cnc3c(c2)CCNC3)O1 [Example 52, 5-[(2S,6R)-2-[[(4aR,7aR)-4-(5,6,7,8-tetrahydro-1,7-naphthyridin-3-yl)-2,3,4a,5,7,7a-hexahydropyrrolo[3,4-b][1,4]oxazin-6-yl]methyl]-6-methylmorpholin-4-yl]quinoline-8-carbonitrile] | < 3 |
| C[C@@H]1CN(c2ccc(C#N)c3ncccc23)C[C@H](CN2CCN(c3cnc4c(c3)CNCC4)C(C)(C)C2)O1 [Example 56, 5-[(2S,6R)-2-[[3,3-dimethyl-4-(5,6,7,8-tetrahydro-1,6-naphthyridin-3-yl)piperazin-1-yl]methyl]-6-methyl-morpholin-4-yl]quinoline-8-carbonitrile] | 12 |
| C[C@@H]1CN(c2ccc(C#N)c3ncccc23)C[C@H](CN2CCC(Nc3ncc4c(n3)CCNC4)C2)O1 (stereo partly drawn) [Example 57, 5-[(2R,6S)-2-methyl-6-[[3-(5,6,7,8-tetrahydropyrido [4,3-d]pyrimidin-2-ylamino)pyrrolidin-1-yl]methyl]morpholin-4-yl] quinoline-8-carbonitrile] | 20 |
